Measured values reported in patent EP2832223A1, “HERBICIDAL COMPOSITION” (Ishihara Sangyo Kaisha, Ltd., priority 2012, dated 2013).

Tests used:
Assay type in all cases: in vivo
[1] = test system: velvetleaf (Abutilon theophrasti Medic.); assay: Test Example 14: pot test, soil and foliar treatment, visual growth inhibition; conditions: soil treatment and foliar treatment, 31st day after treatment, read-out: Growth inhibition rate (%) of velvetleaf Measured value
Source text: Upland field soil was put into a 1/1,000,000 ha pot, and seeds of velvetleaf (Abutilon theophrasti Medic.) were sown. When the velvetleaf reached 4.0 to 4.3-leaf stage, seeds of velvetleaf were further sown in the same pot assuming conditions such that weeds would later grow. On the next day, predetermined amounts of ONEHOPE NYUZAI (tradename), Click (tradename), Callisto (tradename), Mikado (tradename), a wettable powder containing bicyclopyrone as an active ingredient and Clio (tradename) were diluted with water in an amount corresponding to 300 L/ha and applied for soil treatment and for foliar treatment by a small sprayer.
(§1) On the 31 st day after treatment, the state of growth of the velvetleaf was visually observed to determine the growth inhibition rate (%). The growth inhibition rate (%) (measured value) and the growth inhibition rate (%) calculated in the same manner as in the above Test Example 1 are shown in Table 14.

[2] = test system: wild oat (Avena fatua L.); assay: Test Example 2: pot test, soil treatment, visual growth inhibition; conditions: 28th day after treatment, read-out: Growth inhibition rate (%) of wild oat Measured value
Experimental: Upland field soil was put into a 1/500,000 ha pot, and seeds of wild oat (Avena fatua L.) were sown. On the next day, predetermined amounts of ONEHOPE NYUZAI (tradename), Click (tradename) and SC formulation containing mesotrione as an active ingredient (tradename: Callisto, manufactured by Syngenta) were diluted with water (in an amount corresponding to 1,000 L/ha) and applied for soil treatment by a small sprayer.
as §1, with “28th” for “31 st”, “wild oat” for “velvetleaf”, “2.” for “14.”

[3] = test system: common cocklebur (Xanthium strumarium L.); assay: Test Example 12: pot test, foliar treatment, visual growth inhibition; conditions: foliar treatment at 4.2 to 4.3-leaf stage, 28th day after treatment, read-out: Growth inhibition rate (%) of common cocklebur Measured value
Experimental: Upland field soil was put into a 1/1,000,000 ha pot, and seeds of common cocklebur (Xanthium strumarium L.) were sown. When the common cocklebur reached 4.2 to 4.3-leaf stage, predetermined amounts of ONEHOPE NYUZAI (tradename), Click (tradename) and water dispersible granules containing flufenacet as an active ingredient (tradename: Cadou, manufactured by Bayer CropScience) were diluted with water (in an amount corresponding to 1,000 L/ha) and applied for foliar treatment by a small sprayer.
as §1, with “28th” for “31 st”, “common cocklebur” for “velvetleaf”, “12.” for “14.”

[4] = test system: Japanese millet (Echinochloa utilis Ohwi et Yabuno); assay: Test Example 9: pot test, soil treatment, visual growth inhibition; conditions: soil treatment, 28th day after treatment, read-out: Growth inhibition rate (%) of Japanese millet Measured value
Experimental: (§2) Upland field soil was put into a 1/300,000 ha pot, and seeds of Japanese millet (Echinochloa utilis Ohwi et Yabuno) were sown. On the next day, predetermined amounts of ONEHOPE NYUZAI (tradename), Click (tradename), Mikado (tradename) and a wettable powder containing bicyclopyrone prepared in accordance with a conventional formulation method were diluted with water (in an amount corresponding to 1,000 L/ha) and applied for soil treatment by a small sprayer.
as §1, with “28th” for “31 st”, “Japanese millet” for “velvetleaf”, “9.” for “14.”

[5] = test system: prickly sida (Sida spinosa L.); assay: Test Example 10: pot test, soil treatment, visual growth inhibition; conditions: soil treatment, 28th day after treatment, read-out: Growth inhibition rate (%) of prickly sida Measured value
Experimental: Upland field soil was put into a 1/300,000 ha pot, and seeds of prickly sida (Sida spinosa L.) were sown. On the next day, predetermined amounts of ONEHOPE NYUZAI (tradename), Click (tradename), Spectrum (tradename), Callisto (tradename) and Clio (tradename) were diluted with water (in an amount corresponding to 1,000 L/ha) and applied for soil treatment by a small sprayer.
as §1, with “28th” for “31 st”, “prickly sida” for “velvetleaf”, “10.” for “14.”

[6] = test system: annual ragweed (Ambrosia artemisiifolia L.); assay: Test Example 11: pot test, soil treatment, visual growth inhibition; conditions: soil treatment, 28th day after treatment, read-out: Growth inhibition rate (%) of annual ragweed Measured value
Experimental: as §2, with “annual ragweed (Ambrosia artemisiifolia L.)” for “Japanese millet (Echinochloa utilis Ohwi et Yabuno)”
as §1, with “28th” for “31 st”, “annual ragweed” for “velvetleaf”, “11.” for “14.”

[7] = test system: common cocklebur (Xanthium strumarium L.); assay: Test Example 1: pot test, foliar treatment, visual growth inhibition; conditions: foliar treatment at 4.3 to 4.8-leaf stage, 22nd day after treatment, read-out: Growth inhibition rate (%) of common cocklebur Measured value
Source text: In the present invention, a synergistic effect means a higher herbicidal activity of three active ingredients combined, than the simple sum of the respective herbicidal activities of the three active ingredients (the expected activity). The activity expected by the combination of three active ingredients can be calculated as follows (Colby S.R., "Weed", vol. 15, p. 20-22, 1967). […] Upland field soil was put into a 1/300,000 ha pot, and seeds of common cocklebur (Xanthium strumarium L.) were sown. […] Click, manufactured by BASF) and EC formulation containing dimethenamid-P as an active ingredient (tradename: Spectrum, manufactured by BASF) were diluted with water (in an amount corresponding to 1,000 L/ha) and applied for foliar treatment by a small sprayer. On the 22nd day after treatment, the state of growth of the common cocklebur was visually observed to determine the growth inhibition rate (%) in accordance with the following evalution standard. The growth inhibition rate (%) (measured value) and the growth inhibition rate (%) (calculated value) calculated by the Colby's formula are shown in Table 1.

**Q.** How did the inhibition at 20 g/ha ([1]; 20 g/ha) turn out when `COc1cc(OC)nc(NC(=O)NS(=O)(=O)c2ncccc2C(=O)N(C)C)n1` [Nicosulfuron, 2-(4,6-dimethoxypyrimidin-2-ylcarbamoylsulfamoyl)-N,N-dimethylnicotinamide] was run?
**A.** 3%

**Q.** What about the inhibition at 60 g/ha ([1]; 60 g/ha) of the same compound?
**A.** 11%

**Q.** And the inhibition at 30 g/ha ([2]; 30 g/ha)?
**A.** 70%

**Q.** And the inhibition at 15 g/ha ([3]; 15 g/ha)?
**A.** 80%

**Q.** What about the inhibition at 10 g/ha ([4]; 10 g/ha) of the same compound?
**A.** 0%

**Q.** And the inhibition at 10 g/ha ([5]; 10 g/ha)?
**A.** 20%

**Q.** And the inhibition at 100 g/ha ([5]; 100 g/ha)?
**A.** 40%

**Q.** What about the inhibition at 100 g/ha ([6]; 100 g/ha) of the same compound?
**A.** 0%

**Q.** What about the inhibition at 30 g/ha ([7]; 30 g/ha) of the same compound?
**A.** 0%

**Q.** For `CCNc1nc(Cl)nc(NC(C)(C)C)n1` [Terbuthylazine, N^2-tert-butyl-6-chloro-N^4-ethyl-1,3,5-triazine-2,4-diamine], which inhibition at 400 g/ha ([1]; 400 g/ha) is on record?
**A.** 0%

**Q.** What about the inhibition at 1200 g/ha ([1]; 1200 g/ha) of the same compound?
**A.** 0%

**Q.** And the inhibition at 500 g/ha ([2]; 500 g/ha)?
**A.** 60%

**Q.** And the inhibition at 250 g/ha ([3]; 250 g/ha)?
**A.** 30%

**Q.** What about the inhibition at 2000 g/ha ([4]; 2000 g/ha) of the same compound?
**A.** 65%

**Q.** And the inhibition at 200 g/ha ([5]; 200 g/ha)?
**A.** 30%

**Q.** What about the inhibition at 2000 g/ha ([5]; 2000 g/ha) of the same compound?
**A.** 80%

**Q.** And the inhibition at 200 g/ha ([6]; 200 g/ha)?
**A.** 20%

**Q.** And the inhibition at 500 g/ha ([7]; 500 g/ha)?
**A.** 10%
